From ChEMBL document CHEMBL1201862, “PubChem BioAssay data set” (2004)
Each block holds one compound with its values, some of them ahead of it. Active and inactive are the calls of the source.

What was measured:
BJ [1] = test: BJ-TERT fibroblast viability loss – cell-based, RAS-independent, luminescence, dose response (AID 1933); assay type: functional; settings: Homo sapiens
Galanin receptor type 3 = target: T1, Galanin receptor type 3 (Homo sapiens, UniProt O60755); test: Fluorescence-based cell-based primary high throughput dose response assay to identify antagonists of the Galanin Receptor 3 (GalR3).; assay type: functional
T1 sequence (O60755 whole entry): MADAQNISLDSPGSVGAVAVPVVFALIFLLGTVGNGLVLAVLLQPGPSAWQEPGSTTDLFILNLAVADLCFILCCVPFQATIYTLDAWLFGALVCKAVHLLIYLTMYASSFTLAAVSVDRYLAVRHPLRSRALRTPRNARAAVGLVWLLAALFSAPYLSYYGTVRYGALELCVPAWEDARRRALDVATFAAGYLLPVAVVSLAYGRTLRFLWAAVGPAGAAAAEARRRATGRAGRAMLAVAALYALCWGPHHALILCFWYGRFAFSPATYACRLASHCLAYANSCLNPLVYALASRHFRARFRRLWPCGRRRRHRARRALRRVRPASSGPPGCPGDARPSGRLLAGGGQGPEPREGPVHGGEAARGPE

BJ [2] = test: cells; assay type: functional, cell-based; settings: Homo sapiens
BJ [3] = test: BJ-TERT-LT-ST fibroblast viability loss – cell-based, RAS-independent, luminescence, dose response (AID 1935); assay type: functional; settings: Homo sapiens;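 note: BJ fibroblasts immortalized with TERT plus LT and ST oncogenes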
[4] = DRD fibroblast viability loss – cell-based, non-viral oncogenic, luminescence, dose response (AID 1934); assay type: functional; settings: Homo sapiens
cells = assay type: functional, cell-based; settings: HEK-CNG
INS1 = test: INS-1E survival protection against cytokine death – cell-based, luminescence, retest, dose response (AID 449756); assay type: functional; settings: Rattus norvegicus;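 note: cell death triggered by IL-1 beta plus TNF-alpha plus IFN-gamma mixture; protective hits raise ATP signal compared with cytokine alone wells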
[5] = target: T2, Zinc finger protein mex-5 (Caenorhabditis elegans, UniProt Q9XUB2); test: potency of MEX-5 RNA-binding blockers – biochemical, C. elegans, fluorescence polarization, dose response (AID 1960)
T2 sequence (Q9XUB2 whole entry): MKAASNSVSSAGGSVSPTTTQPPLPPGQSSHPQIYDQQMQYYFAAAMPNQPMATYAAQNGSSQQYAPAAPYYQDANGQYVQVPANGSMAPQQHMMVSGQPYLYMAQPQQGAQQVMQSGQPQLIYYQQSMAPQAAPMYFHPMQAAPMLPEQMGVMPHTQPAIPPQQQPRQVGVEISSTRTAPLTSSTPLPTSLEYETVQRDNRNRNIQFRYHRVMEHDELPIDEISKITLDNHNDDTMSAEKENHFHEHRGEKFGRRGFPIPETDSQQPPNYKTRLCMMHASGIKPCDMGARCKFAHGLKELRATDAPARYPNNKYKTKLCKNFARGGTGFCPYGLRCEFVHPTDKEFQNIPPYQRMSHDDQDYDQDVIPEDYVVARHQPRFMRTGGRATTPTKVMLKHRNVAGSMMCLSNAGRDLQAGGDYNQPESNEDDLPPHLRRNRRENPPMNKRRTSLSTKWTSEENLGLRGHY

[6] = target: 72 kDa type IV collagenase (Homo sapiens, UniProt P08253); test: Dose Response validation of uHTS RPN11 inhibitor hits using a MMP-2 Fluorescence assay.; assay type: functional
[7] = target: T3, RNA-binding protein pos-1 (Caenorhabditis elegans, UniProt G5EF15); test: disruptors of C. elegans POS-1 RNA interaction – biochemical, fluorescence polarization, dose response (AID 1964);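 note: purified POS-1 fused to maltose binding protein made in E. coli; potency of compounds blocking POS-1 binding to fluorescent RNA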
T3 sequence (G5EF15 whole entry): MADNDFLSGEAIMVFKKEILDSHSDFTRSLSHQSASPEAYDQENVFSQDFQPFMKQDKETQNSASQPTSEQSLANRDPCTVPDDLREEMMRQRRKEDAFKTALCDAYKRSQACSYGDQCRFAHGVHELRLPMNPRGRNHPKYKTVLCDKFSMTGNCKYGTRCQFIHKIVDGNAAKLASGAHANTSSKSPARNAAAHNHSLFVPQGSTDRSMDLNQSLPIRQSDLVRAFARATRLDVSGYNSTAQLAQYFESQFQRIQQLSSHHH

Prothrombin = Prothrombin (Bos taurus, UniProt P00735); test: thrombin protease inhibitors – biochemical, fluorescence polarization, uHTS hits, dose response (AID 602369); assay type: functional
[8] = target: 26S proteasome non-ATPase regulatory subunit 14 (Homo sapiens, UniProt O00487); test: inhibition of proteasome subunit RPN11 – biochemical, fluorescence polarization, uHTS hits, confirmation (AID 602368); assay type: functional
[9] = blockers of HIV-1 envelope-mediated cell-cell fusion – cherry-pick, dose response (AID 652057); assay type: functional, cell-based
[10] = blockers of HIV-1 ZM109 envelope-driven cell-cell fusion – HeLa effector, CEM target cells, luciferase, cherry-pick, dose response (AID 652058); assay type: functional, cell-based;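 note: luciferase signal from HIV-1 Env mediated cell-cell fusion of effector and target cells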
[11] = off-target signal loss in HeLa-CEM21 co-culture – HeLa F-luc CTL cells, cherry-picked, counter-screen for HIV-1 Env fusion inhibitor project, dose response (AID 652040); assay type: functional, cell-based;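 note: potency for signal decrease marking cytotoxic or nonspecific inhibition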
[12] = HIV-1 AD8 envelope cell-cell fusion blockers – cherry-pick, dose response (AID 652062); assay type: functional, cell-based;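 note: luciferase signal from cell-cell fusion driven by HIV-1 clade B AD8 Env; potency is for inhibitors of fusion seen as a drop in luminescence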
[13] = target: T4, Sentrin-specific protease 1 (Homo sapiens, UniProt Q9P0U3); test: SENP1 catalytic domain blockers, concentration series – biochemical, kinetic FRET, dose response (AID 651697); assay type: functional; settings: read-out: IC50_Mean
T4 sequence (Q9P0U3 whole entry): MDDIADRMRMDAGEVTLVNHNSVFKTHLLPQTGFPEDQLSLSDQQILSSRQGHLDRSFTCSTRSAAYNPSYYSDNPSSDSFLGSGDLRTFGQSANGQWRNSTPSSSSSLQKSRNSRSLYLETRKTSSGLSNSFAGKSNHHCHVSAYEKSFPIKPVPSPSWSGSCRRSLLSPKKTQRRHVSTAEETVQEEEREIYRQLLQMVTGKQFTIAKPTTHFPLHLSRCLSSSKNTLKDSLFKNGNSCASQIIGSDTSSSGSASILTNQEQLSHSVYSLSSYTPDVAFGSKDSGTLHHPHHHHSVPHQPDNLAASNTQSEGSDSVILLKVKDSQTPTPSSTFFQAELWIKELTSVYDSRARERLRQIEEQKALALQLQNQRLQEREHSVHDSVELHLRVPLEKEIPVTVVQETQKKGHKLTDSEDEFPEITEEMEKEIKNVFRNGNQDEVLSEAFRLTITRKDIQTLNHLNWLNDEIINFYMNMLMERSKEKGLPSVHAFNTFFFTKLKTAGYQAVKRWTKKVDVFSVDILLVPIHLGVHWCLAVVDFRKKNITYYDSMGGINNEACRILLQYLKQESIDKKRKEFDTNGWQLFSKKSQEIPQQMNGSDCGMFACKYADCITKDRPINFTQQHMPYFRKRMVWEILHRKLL

[14] = target: T4, Sentrin-specific protease 1; test: Dose response confirmation of small molecule inhibitors of the catalytic domain of the SUMO protease, SENP1 in a FRET assay.; assay type: functional; settings: read-out: IC50_Mean

72 kDa type IV collagenase, sequence (P08253 whole entry, the tested form may be a part): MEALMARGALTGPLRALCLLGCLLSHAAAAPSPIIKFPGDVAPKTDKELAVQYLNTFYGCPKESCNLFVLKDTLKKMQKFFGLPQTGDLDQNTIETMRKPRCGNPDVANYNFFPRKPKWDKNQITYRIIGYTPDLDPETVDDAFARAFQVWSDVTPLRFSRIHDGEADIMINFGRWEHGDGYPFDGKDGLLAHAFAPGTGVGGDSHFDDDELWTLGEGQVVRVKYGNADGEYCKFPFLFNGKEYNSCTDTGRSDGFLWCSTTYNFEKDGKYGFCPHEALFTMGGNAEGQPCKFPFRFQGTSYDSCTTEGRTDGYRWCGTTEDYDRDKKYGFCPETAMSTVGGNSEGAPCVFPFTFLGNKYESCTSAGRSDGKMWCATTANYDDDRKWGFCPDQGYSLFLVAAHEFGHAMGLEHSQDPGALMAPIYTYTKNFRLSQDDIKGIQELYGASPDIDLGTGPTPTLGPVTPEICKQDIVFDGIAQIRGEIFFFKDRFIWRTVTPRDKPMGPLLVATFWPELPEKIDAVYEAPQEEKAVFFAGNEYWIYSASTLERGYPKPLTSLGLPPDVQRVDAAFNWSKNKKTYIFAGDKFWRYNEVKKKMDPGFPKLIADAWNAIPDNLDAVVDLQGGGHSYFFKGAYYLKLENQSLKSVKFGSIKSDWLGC
26S proteasome non-ATPase regulatory subunit 14, sequence (O00487 whole entry, the tested form may be a part): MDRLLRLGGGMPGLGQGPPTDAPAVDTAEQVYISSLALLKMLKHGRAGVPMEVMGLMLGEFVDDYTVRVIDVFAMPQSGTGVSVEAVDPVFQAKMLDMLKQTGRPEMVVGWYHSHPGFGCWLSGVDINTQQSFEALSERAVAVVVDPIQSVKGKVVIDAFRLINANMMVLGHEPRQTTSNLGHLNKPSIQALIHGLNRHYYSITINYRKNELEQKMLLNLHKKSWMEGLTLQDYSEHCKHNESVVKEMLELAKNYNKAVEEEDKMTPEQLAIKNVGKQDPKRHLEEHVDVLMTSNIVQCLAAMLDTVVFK

SMILES: CC(C)(C)c1cc([N+](=O)[O-])cc(C(C)(C)C)c1O
EC50 (BJ [1]): > 150 µM (not active)
IC50 (Galanin receptor type 3): 2 µM (active)
EC50 (BJ [2]): > 150 µM (inconclusive)
EC50 (BJ [3]): > 75 µM (inconclusive)
EC50 [4]: 22 µM (active)
EC50 (cells): > 29.9 µM (inactive)
AC50 (INS1): 4.45 µM (active)

SMILES: CC[C@@]1(C(=O)OC)N[C@H](CN(C)C(=O)c2ccc(C(C)(C)C)cc2)[C@@H]2C(=O)N(Cc3ccccc3)C(=O)[C@@H]21
AC50 [9]: 6.06 µM (active)
AC50 [10]: 8.17 µM (active)
AC50 [11]: 18.3 µM (active)
AC50 [12]: 10.1 µM (active)

SMILES: O=C1C=C(c2cccc(Cl)c2O)C[C@@H](c2ccc(Cl)cc2)C1
IC50 [13]: 2.66 µM (active)
IC50 [14]: 1.15 µM (active)

The next lines start with the values.

EC50 [5]: > 300 µM (not active)
IC50 [6]: > 100 µM (inactive)
EC50 [7]: > 300 µM (not active)
IC50 (Prothrombin): 25.5 µM (active)
IC50 [8]: 26.2 µM (active)
SMILES: Cc1cc(/C=C(/C#N)c2nc3ccccc3[nH]2)c(C)n1-c1ccccc1C(=O)O

IC50 [6]: > 100 µM (inactive)
IC50 (Prothrombin): 7.22 µM (active)
IC50 [8]: 4.18 µM (active)
SMILES: CC1=Nc2ccccc2/C1=C\c1nc(-c2ccccc2)oc1O
